Data published in US11629171B2, “Beta-hairpin peptidomimetics” (POLYPHOR AG, priority 2017, dated 2023).
Converted amounts (≈) assume the structure as drawn. Where a SMILES comes first, the peptide text is derived from it. Bridges are numbered along the chain shown (N, C = ends). Roman numbers before positions name the chains, in order. [ ]: non-standard residue; d: D form. The star is where a group is joined. Leu(3R-OH) = CC(C)[C@@H](O)[C@H](N)C(=O)O; d(pGlu) = O=C1CC[C@H](C(=O)O)N1; Thr(ol) = C[C@@H](O)[C@H](N)CO; Tle = CC(C)(C)[C@H](N)C(=O)O; Hiv = CC(C)[C@H](O)C(=O)O; dDab = NCC[C@@H](N)C(=O)O; hSer = N[C@@H](CCO)C(=O)O; Dab = NCC[C@H](N)C(=O)O; Dap = NC[C@H](N)C(=O)O; NHCH2CH2OH = OCCN*

Key:
Assay type in all cases: cell-based
[1] = tested on: Escherichia coli ATCC 25922; conditions: ATCC 25922
In short: (§1)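 Broth microdilution per CLSI; MH-II (cation-adjusted) + 0.002% P-80 final; ~10^6 CFU/mL inoculum; 2-fold peptide series; 35° C, 18-20 h; MIC = no visible growth, μg/mL.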

[2] = tested on: Klebsiella pneumoniae SSI #3010; conditions: SSI #3010
In short: as §1

[3] = tested on: Enterobacter cloacae 848840; conditions: 848840
In short: as §1

[4] = tested on: Pseudomonas aeruginosa ATCC 27853; conditions: ATCC 27853
In short: as §1

[5] = tested on: Acinetobacter baumannii 872842; conditions: 872842
In short: as §1

[6] = tested on: Klebsiella pneumoniae 968733; conditions: 968733
In short: as §1

[7] = tested on: Escherichia coli 926415; conditions: 926415
In short: as §1

[8] = tested on: Acinetobacter baumannii DSM 30008; conditions: DSM 30008
In short: as §1

[9] = tested on: human red blood cells (hRBC); assay: Hemolysis; conditions: red cells of human, 1 h, 200
In short: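 Washed fresh human RBC (20% v/v) incubated with peptide at 200 μg/mL for 1 h at 37° C with shaking. Supernatant OD540 measured after dilution, blank corrected; percent hemolysis = OD540 peptide / OD540 of 2% Triton X-100 lysis × 100, PBS with 10% water as 0%.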

Row | Structure (SMILES) | MIC [1] [µg/mL] | MIC [2] [µg/mL] | MIC [3] [µg/mL] | MIC [4] [µg/mL] | MIC [5] [µg/mL] | MIC [6] [µg/mL] | MIC [7] [µg/mL] | MIC [8] [µg/mL] | Hemolysis at 200 μg/mL [9] [%]
1 | CC(C)C[C@@H]1NC(=O)[C@@H](CC(C)C)NC(=O)[C@H](CCN)NC(=O)[C@@H](NC(=O)[C@H](CN)NC(=O)[C@@H](NC(=O)[C@H](CCN)NC(=O)CC[C@@H]2NC(=O)[C@H](CN)NC(=O)[C@H](Cc3ccc(O)cc3)NC(=O)[C@@H](NC(=O)[C@@H](NC(=O)[C@H]3CCC(=O)N3)C(C)C)CSSC[C@@H](C(=O)N[C@H](CO)[C@@H](C)O)NC(=O)[C@H](C(C)(C)C)NC(=O)[C@H](CO)NC(=O)[C@H](Cc3c[nH]c4ccccc34)NC(=O)[C@H]([C@@H](C)O)NC(=O)[C@@H](CCN)NC2=O)[C@@H](C)O)CCNC(=O)[C@H]([C@@H](C)O)NC(=O)[C@H](CCN)NC(=O)[C@H](CCN)NC1=O [Ex. 233] (I: [d(pGlu)]VCY[Dap]E[dDab]TWS[Tle]C[Thr(ol)] / II: [Dab]T[Dap][Dab][Dab][dL]L[Dab][Dab]T; disulfide I:3-I:12; amide I:6-II:N; lactam II:4-II:C) | 0.03125 (≈ 0.0126 µM) | 0.0625 (≈ 0.0252 µM) | 0.125 (≈ 0.0503 µM) | 0.125 (≈ 0.0503 µM) | 0.0625 (≈ 0.0252 µM) | 0.0625 (≈ 0.0252 µM) | 0.0625 (≈ 0.0252 µM) | 0.0625 (≈ 0.0252 µM) | <1
2 | CC(=O)N[C@@H](CCN)C(=O)N[C@@H](CC(C)C)C(=O)N[C@H]1CSSC[C@@H](C(=O)N[C@H](C(N)=O)C(C)C)NC(=O)[C@H](C(C)(C)C)NC(=O)[C@@H]2CSSC[C@H](NC(=O)[C@H](Cc3ccc(O)cc3)NC1=O)C(=O)N[C@@H](CCC(=O)N[C@@H](CCN)C(=O)N[C@H](C(=O)N[C@@H](CN)C(=O)N[C@H]1CCNC(=O)[C@H]([C@@H](C)O)NC(=O)[C@H](CCN)NC(=O)[C@H](CCN)NC(=O)[C@H](CC(C)C)NC(=O)[C@@H](CC(C)C)NC(=O)[C@H](CCN)NC1=O)[C@@H](C)O)C(=O)N[C@H](CCN)C(=O)N[C@@H](CCN)C(=O)N[C@@H](Cc1c[nH]c3ccccc13)C(=O)N2 [Ex. 234] (I: Ac-[Dab]LCYCE[dDab][Dab]WC[Tle]CV-NH2 / II: [Dab]T[Dap][Dab][Dab][dL]L[Dab][Dab]T; disulfide I:3-I:12, I:5-I:10; amide I:6-II:N; lactam II:4-II:C) | 0.125 (≈ 0.0487 µM) | 0.25 (≈ 0.0973 µM) | 0.5 (≈ 0.195 µM) | 0.5 (≈ 0.195 µM) | 0.25 (≈ 0.0973 µM) | 1 (≈ 0.389 µM) | 0.25 (≈ 0.0973 µM) | 0.25 (≈ 0.0973 µM) | 9
3 | CC(=O)N[C@@H](CCN)C(=O)N[C@H](C(=O)N[C@H]1CSSC[C@@H](C(=O)N[C@H](C(N)=O)C(C)C)NC(=O)[C@H](C(C)C)NC(=O)[C@@H]2CSSC[C@H](NC(=O)[C@H](Cc3ccc(O)cc3)NC1=O)C(=O)N[C@@H](CCC(=O)N[C@@H](CCN)C(=O)N[C@H](C(=O)N[C@@H](CN)C(=O)N[C@H]1CCNC(=O)[C@H]([C@@H](C)O)NC(=O)[C@H](CCN)NC(=O)[C@H](CCN)NC(=O)[C@H](CC(C)C)NC(=O)[C@@H](CC(C)C)NC(=O)[C@H](CCN)NC1=O)[C@@H](C)O)C(=O)N[C@H](CCN)C(=O)N[C@@H](CO)C(=O)N[C@@H](Cc1c[nH]c3ccccc13)C(=O)N2)[C@H](O)C(C)C [Ex. 235] (I: Ac-[Dab][Leu(3R-OH)]CYCE[dDab]SWCVCV-NH2 / II: [Dab]T[Dap][Dab][Dab][dL]L[Dab][Dab]T; disulfide I:3-I:12, I:5-I:10; amide I:6-II:N; lactam II:4-II:C) | 0.0625 (≈ 0.0244 µM) | 0.25 (≈ 0.0977 µM) | 0.25 (≈ 0.0977 µM) | 0.25 (≈ 0.0977 µM) | 0.0625 (≈ 0.0244 µM) | 0.25 (≈ 0.0977 µM) | 0.125 (≈ 0.0489 µM) | 0.0625 (≈ 0.0244 µM) | 4
4 | CC(C)C[C@@H]1NC(=O)[C@@H](CC(C)C)NC(=O)[C@H](CCN)NC(=O)[C@@H](NC(=O)[C@H](CCN)NC(=O)[C@@H](NC(=O)[C@H](CCN)NC(=O)CC[C@@H]2NC(=O)[C@@H](NC(=O)[C@H](CO)NC(=O)[C@@H](NC(=O)[C@@H](O)C(C)C)[C@@H](C)O)CSSC[C@@H](C(=O)N[C@H](C(=O)N[C@@H](C)C(=O)N[C@@H](Cc3ccc(O)cc3)C(=O)NCCO)C(C)(C)C)NC(=O)[C@H](Cc3c[nH]c4ccccc34)NC(=O)[C@H](CCO)NC(=O)[C@@H](CCN)NC2=O)[C@@H](C)O)CCNC(=O)[C@H]([C@@H](C)O)NC(=O)[C@H](CCN)NC(=O)[C@H](CCN)NC1=O [Ex. 236] (I: H-[Hiv]TSCE[dDab][hSer]WC[Tle]AY-NHCH2CH2OH / II: [Dab]T[Dab][Dab][Dab][dL]L[Dab][Dab]T; disulfide I:4-I:9; amide I:5-II:N; lactam II:4-II:C) | 0.25 (≈ 0.103 µM) | 0.25 (≈ 0.103 µM) | 1 (≈ 0.412 µM) | 0.25 (≈ 0.103 µM) | 2 (≈ 0.823 µM) | 8 (≈ 3.29 µM) | 2 (≈ 0.823 µM) | 0.25 (≈ 0.103 µM) | <1
5 | CC(=O)N[C@@H](CCN)C(=O)N[C@H](C(=O)N[C@H](C(=O)N[C@@H](Cc1ccc(O)cc1)C(=O)N[C@H]1CSSC[C@@H](C(=O)N[C@H](C(=O)N[C@@H](C)C(=O)N[C@@H](CO)C(N)=O)C(C)(C)C)NC(=O)[C@H](Cc2c[nH]c3ccccc23)NC(=O)[C@H](CO)NC(=O)[C@@H](CCN)NC(=O)[C@H](CCC(=O)N[C@@H](CCN)C(=O)N[C@H](C(=O)N[C@@H](CN)C(=O)N[C@H]2CCNC(=O)[C@H]([C@@H](C)O)NC(=O)[C@H](CCN)NC(=O)[C@H](CCN)NC(=O)[C@H](CC(C)C)NC(=O)[C@@H](CC(C)C)NC(=O)[C@H](CCN)NC2=O)[C@@H](C)O)NC1=O)[C@@H](C)O)C(C)C [Ex. 237] (I: Ac-[Dab]VTYCE[dDab]SWC[Tle]AS-NH2 / II: [Dab]T[Dap][Dab][Dab][dL]L[Dab][Dab]T; disulfide I:5-I:10; amide I:6-II:N; lactam II:4-II:C) | 0.0625 (≈ 0.025 µM) | 0.0625 (≈ 0.025 µM) | 0.125 (≈ 0.05 µM) | 0.125 (≈ 0.05 µM) | 0.125 (≈ 0.05 µM) | 0.5 (≈ 0.2 µM) | 0.25 (≈ 0.1 µM) | 0.03125 (≈ 0.0125 µM) | <1
6 | CC(=O)N[C@@H](CCN)C(=O)N[C@H](C(=O)N[C@H](C(=O)N[C@@H](Cc1ccc(O)cc1)C(=O)N[C@H]1CSSC[C@@H](C(=O)N[C@H](C(=O)N[C@@H](C)C(=O)N[C@H](C(N)=O)C(C)C)C(C)(C)C)NC(=O)[C@H](Cc2c[nH]c3ccccc23)NC(=O)[C@H](CO)NC(=O)[C@@H](CCN)NC(=O)[C@H](CCC(=O)N[C@@H](CCN)C(=O)N[C@H](C(=O)N[C@@H](CN)C(=O)N[C@H]2CCNC(=O)[C@H]([C@@H](C)O)NC(=O)[C@H](CCN)NC(=O)[C@H](CCN)NC(=O)[C@H](CC(C)C)NC(=O)[C@@H](CC(C)C)NC(=O)[C@H](CCN)NC2=O)[C@@H](C)O)NC1=O)[C@@H](C)O)C(C)C [Ex. 238] (I: Ac-[Dab]VTYCE[dDab]SWC[Tle]AV-NH2 / II: [Dab]T[Dap][Dab][Dab][dL]L[Dab][Dab]T; disulfide I:5-I:10; amide I:6-II:N; lactam II:4-II:C) | 0.0625 (≈ 0.0249 µM) | 0.125 (≈ 0.0498 µM) | 0.125 (≈ 0.0498 µM) | 0.125 (≈ 0.0498 µM) | 0.0625 (≈ 0.0249 µM) | 0.25 (≈ 0.0996 µM) | 0.125 (≈ 0.0498 µM) | 0.03125 (≈ 0.0125 µM) | 2
